Experimental findings from paper PMC8592624, “Rapid and improved oral absorption of N-butylphthalide by sodium cholate-appended liposomes for efficient ischemic stroke therapy” (Drug Delivery, 2021) are described below.

Broadly, the Cmax is the peak of the concentration-time curve.

The nature of data set [1]: In vitro drug release (dialysis method). Type of data set: physicochemical. The method, then: The release curves of the formulations were obtained using a dialysis method (Zhang et al., [2011]). […] The following procedures were performed as above.
Another data set in a line: Pharmacokinetics in rats. Type of data set: in vivo, Sprague-Dawley rats. The method, then:
Male Sprague-Dawley rats (250 ± 20 g) were obtained from the laboratory animal center of Zhengzhou University (Zhengzhou, China). The animal experiments were conducted in accordance with the Regional Ethics Committee and protocols from the Institutional Animal Care and Use Committee of Zhengzhou University. Rats were fasted overnight with free access of water before the pharmacokinetic studies. To begin with, rats were randomly assigned into three groups. […] 0.5 mL of blood was taken from rats by retro-orbital sinus at 0.083, 0.25, 0.5, 1, 2, 3, 4, 6, 8, and 10 h after administration, respectively. The concentration of NBP in plasma was determined by HPLC after suitable processing. Briefly, 300 µL methanol was mixed with 100 µL of plasma and the resultant suspension was centrifuged (12,000 rpm, 10 min). The supernatant obtained was analyzed by a validated HPLC method (Supplementary Table 2). The pharmacokinetic parameters were obtained using DAS 3.0 software (Mathematical Pharmacology Professional Committee of China) and were presented as mean ± SD. The absolute bioavailability (Fa) and the relative bioavailability (Fr) were calculated by the following equations, respectively: (4) Fa (%)=AUC0−t, oralDosei.v/AUC0−t, i.vDoseoral (5) Fr (%)=AUC0−t, formulation/AUC0−t, NBP suspension
Where AUC0−t represents the area under the pharmacokinetic curve throughout the study.

Data set [2] is described as follows: Biodistribution in rats after oral administration. Type of data set: in vivo. As to conditions: p.o., 30 mg/kg, during 2 h. The method, then: Before the start of the experiment, rats were fasted while allowed to drink freely overnight. […] Rats were sacrificed 0.083, 0.25, 0.5, 1 and 2 h post-administration, and subsequently, the vital organs involving heart, liver, spleen, kidney, lung as well as brain were harvested and processed by following procedures. In brief, the harvest tissues were weighed and homogenized in cold saline. The obtained tissue lysates (100 μL) was methanol precipitated and centrifuged (4 °C, 15 min) followed by injection of the supernatant (50 μL) into HPLC. The NBP concentration in each tissue sample was calculated from the respective standard curves. […] Re= AUC0−t, tissue, formulation/AUC0−t, tissue, NBP suspension (Wang et al., [2014]) Ce=Cmax, tissue, formulation/Cmax, tissue, NBP suspension (Wang et al., [2021])

The subject of data set [3] is cerebral ischemia/reperfusion (I/R) model. Put plainly: Cerebral ischemia/reperfusion (I/R) model, middle cerebral artery occlusion (MCAO). Type of data set: in vivo. As to conditions: MCAO rats, 30 mg/kg p.o. The method, then:
Rats (280-320 g) were divided into five groups randomly (n = 10 per group): […] After lateral neck incision, the internal carotid artery, right common carotid artery […] and external carotid artery were exposed. A surgical nylon suture was gently advanced to occlude MCA until slight resistance was felt (18-20 mm from MCA bifurcation). 1.5 hours post MCAO, reperfusion was inducted by taking out the suture and the rats were immediately orally given the predetermined formulations. The sham operated group received the same surgery in the […] of the MCAO and drug treatment. The core body temperature was kept constant (37 ± 0.5 °C) for 24 h post reperfusion. Neurological deficit of rats was then assessed by the blinded Longa's method. […] The cerebral infarct area (White) was analyzed by Image-J and represented as a percentage of the total brain area. Histological alterations of brain samples from the remaining rats were analyzed via hematoxylin and esosin (H&E) staining and then observed under a microscope. The levels of malondialdehyde (MDA), superoxide dismutase (SOD) and glutathione peroxidase (GSH-Px) in brain lysates were determined 24 h after reperfusion according to the protocols of the specific agent kit (Servicebio, Wuhan, China).

Where [4] appears, read: i.v., NBP solution, 30 mg/kg, n = 5.

For `CCCCC1OC(=O)c2ccccc21` (stereo not drawn) [NBP, N-butylphthalide], the “cumulative release during 12 h” value in data set [1] (SGF pH 1.2 2 h then phosphate buffer pH 6.8, 37 °C) was determined as 6.79 ± 0.99%. Further, the “cumulative drug release within 2 h” value in data set [1] (SGF pH 1.2, 37 °C, 100 rpm) was “about 6%”. In addition, the “24 h cumulative drug release amount” value in data set [1] (SGF pH 1.2 then phosphate buffer pH 6.8, 37 °C) was 6.79 ± 0.99%. For the same compound, the “Fa (absolute bioavailability)” value in the data set “Pharmacokinetics in rats” (i.v., 30 mg/kg (reference)) is 100%. In the data set “Pharmacokinetics in rats” (setting [4]), this compound had an AUC0-t of 7590 ± 780 ng·h/mL, a CLz of 44.2 ± 4.17 mL/min/kg, a Cmax of 25510 ± 3460 ng/mL and a tmax of 4.98 min. For the same compound, in the data set “Pharmacokinetics in rats” (p.o., 30 mg/kg), the “Fa (absolute bioavailability)” value came to 21.7% and the “Fr (relative bioavailability to NBP suspension)” value amounted to 100%. For the same compound, the “time at which Cmax was observed on plasma curve” value in the data set “Pharmacokinetics in rats” (p.o., 30 mg/kg, Figure 3(B)) was 2 h. In the data set “Pharmacokinetics in rats” (p.o., 30 mg/kg, n = 5), this compound came in with an AUC0-t of 1650 ± 320 ng·h/mL, a Cmax of 360 ± 130 ng/mL and a tmax of 61.2 ± 18.6 min. Moreover, in “Pharmacokinetics in rats” (p.o., 30 mg/kg, n = 5, apparent clearance (CL/F)), the CLz was 201.8 ± 62.7 mL/min/kg. In addition, the “organ of main accumulation” value in data set [2] is recorded as “mainly in the lung”. In data set [3] (24 h), the “neurological score compared with I/R group” value is listed as “no significant difference”. In data set [3] (TTC staining, percentage of total brain area), this compound yielded an infarct volume of 27.66 ± 2.59%.
